Assay results as given in patent US12098134B2, “Benzo-heterocyclic compound and composition for preventing or treating cancer disease, containing same as active ingredient” (INDUSTRY ACADEMIC COOPERATION FOUNDATION KEIMYUNG UNIVERSITY, priority 2018, dated 2024).

Assays:
[1] = system: breast cancer cell line MDA-MB-231; test: Anti-proliferative activity in breast cancer cell line MDA-MB-231; assay type: cell-based; conditions: MDA-MB-231 cell line
Text: Anti-proliferative activity against breast cancer cell line MDA-MB-231 was investigated using the compounds synthesized through the above Examples 1 to 4.

[2] = system: cervical cancer cell line HeLa; test: Anti-proliferative activity in HeLa cell line; assay type: cell-based; conditions: Homo sapiens
[3] = system: lung cancer cell line A549; test: Anti-proliferative activity in A549 cell line; assay type: cell-based; conditions: Homo sapiens
[4] = system: non-small cell lung cancer cell line H1975; test: Anti-proliferative activity in H1975 cell line; assay type: cell-based; conditions: Homo sapiens, NCI-H1975
SH-SY5Y cells = test: Soft agar colony formation assay; assay type: cell-based, human; conditions: cultured 1-2 weeks
Protocol: Anchorage-independent cell growth is a characteristic of cell carcinogenesis and indicates the ability of transformed cells to grow independently of a solid surface. The soft agar colony formation assay is a widely used method to measure the capability of anchorage-independent cell growth in vitro. Thus, the suppressive effect of Compound 9b on Anchorage-independent cell growth by soft agar colony formation assay.
SH-SY5Y cells were seeded in a 6-well plate with 1.2% agar (4×10^5 cells/well) and Compound 9b was added at concentrations of 1 μM, 3 μM and 5 μM and cultured for 1-2 weeks. DMSO (0.5%) was used as a negative control. After incubation, colonies were stained using by 0.05% crystal violet for 10 minutes. The colonies were washed by 3rd distilled water and captured.

[5] = system: human neuroblastoma cell line SH-SY5Y; test: Anti-proliferative activity in SH-SY5Y cell line; assay type: cell-based; conditions: half maximal growth inhibition concentration, after 72 hours
Protocol: Anti-proliferative activity against human neuroblastoma cell line SH-SY5Y, an in vitro model of human malignant metastatic neuroblastoma, was investigated using the compounds synthesized through the above Examples 1 to 4.
SH-SY5Y cells were cultured in DMEM (Dulbecco's Modified Eagle's Media) with L-glutamine supplemented with […] of streptomycin, 100 units/mL of penicillin and 10% fetal bovine serum (FBS). The cells were grown to confluence in a humidified atmosphere (37° C., 5% CO2).

GI50 ([1]; Homo sapiens) [µM] | SMILES | other results
60.8 | CCCCn1c(-c2cccc(C(=O)NO)c2)nc2ccccc21 [Compound 14d, 3-(1-Butyl-1H-benzo[d]imidazol-2-yl)-N-hydroxybenzamide] | –
35.5 | CCCCn1c(-c2ccc(C(=O)NO)cc2)nc2ccccc21 [Compound 6d, 4-(1-butyl-1H-benzo[d]imidazol-2-yl)-N-hydroxybenzamide] | –
8.31 | O=C(NO)c1ccc(-c2nc3ccccc3o2)cc1 [Compound 9a, 4-(benzo[d]oxazol-2-yl)-N-hydroxybenzamide] | –
> 100 | CCn1c(-c2cccc(C(=O)NO)c2)nc2ccccc21 [Compound 14b, 3-(1-Ethyl-1H-benzo[d]imidazol-2-yl)-N-hydroxybenzamide] | –
44.6 | CCCn1c(-c2ccc(C(=O)NO)cc2)nc2ccccc21 [Compound 6c, N-hydroxy-4-(1-propyl-1H-benzo[d]imidazol-2-yl)benzamide] | –
15.6 | O=C(NO)c1ccc(-c2nc3ccccc3[nH]2)cc1 [Compound 5, 4-(1H-benzo[d]imidazol-2-yl)-N-hydroxybenzamide] | –
47.9 | O=C(NO)c1cccc(-c2nc3ccccc3o2)c1 [Compound 17a, 3-(Benzo[d]oxazol-2-yl)-N-hydroxybenzamide] | –
23.1 | O=C(NO)c1cccc(-c2nc3ccccc3s2)c1 [Compound 17b, 3-(benzo[d]thiazol-2-yl)-N-hydroxybenzamide] | –
62.1 | CCCn1c(-c2cccc(C(=O)NO)c2)nc2ccccc21 [Compound 14c, N-hydroxy-3-(1-propyl-1H-benzo[d]imidazol-2-yl)benzamide] | –
> 100 | Cn1c(-c2cccc(C(=O)NO)c2)nc2ccccc21 [Compound 14a, N-hydroxy-3-(1-methyl-1H-benzo[d]imidazol-2-yl)benzamide] | –
3.86 | O=C(NO)c1ccc(-c2nc3ccccc3s2)cc1 [Compound 9b, 4-(benzo[d]thiazol-2-yl)-N-hydroxybenzamide] | GI50 [2]: 13.5 µM; GI50 [3]: 15.6 µM; GI50 [4]: 3.71 µM; ability of SH-SY5Y cells to form colonies (SH-SY5Y cells; 1 μM, 3 μM and 5 μM): decreased in a dose-dependent manner; anchorage-independent cell growth of SH-SY5Y neuroblastoma (SH-SY5Y cells; 3 μM): almost completely inhibited
– | O=C(NO)c1cccc(-c2nc3ccccc3[nH]2)c1 [Compound 13, 3-(1H-benzo[d]amidazol-2-yl)-N-hydroxybenzamide] | GI50 [1]: > 100 µM; GI50 [5]: > 100 µM
40.3 | Cn1c(-c2ccc(C(=O)NO)cc2)nc2ccccc21 [Compound 6a, N-hydroxy-4-(1-methyl-1H-benzo[d]imidazol-2-yl)benzamide] | –
15.6 | CCn1c(-c2ccc(C(=O)NO)cc2)nc2ccccc21 [Compound 6b, 4-(1-ethyl-1H-benzo[d]imidazol-2-yl)-N-hydroxybenzamide] | –
– | O=C(CCCCCCC(=O)Nc1ccccc1)NO [SAHA, reference compound] | GI50 [1]: 3.16 µM; GI50 [5]: 2.9 µM
